Results: PMC10569036

Test: shake flask on a mixture of 185; loss from the water phase only; LC-Orbitrap peak areas
Conditions: room

SMILES | log partition 1-octanol / HPLC water, unbuffered, traces of methanol / DMSO | log partition butyl acetate / HPLC water, unbuffered, traces of methanol / DMSO | log partition chloroform / HPLC water, unbuffered, traces of methanol / DMSO | log partition cyclohexane / HPLC water, unbuffered, traces of methanol / DMSO | log partition dichloromethane / HPLC water, unbuffered, traces of methanol / DMSO | log partition n-hexane / HPLC water, unbuffered, traces of methanol / DMSO | log partition n-octane / HPLC water, unbuffered, traces of methanol / DMSO | log partition n-undecane / HPLC water, unbuffered, traces of methanol / DMSO | log partition oleylalcohol / HPLC water, unbuffered, traces of methanol / DMSO | log partition toluene / HPLC water, unbuffered, traces of methanol / DMSO
Oc1c(Cl)ccc(Cl)c1Cl | -0.2337 log10 | -1.606 log10 | 0.7523 log10 | 0.2263 log10 | -0.3412 log10 | -0.04129 log10 | 0.4223 log10 | -0.1707 log10 | -0.8397 log10 | -0.4023 log10
CCCCNC(=S)NCCCC | 1.103 log10 | 0.744 log10 | 0.6525 log10 | -0.1972 log10 | 0.6427 log10 | -0.2041 log10 | 0.07134 log10 | 0.1833 log10 | 0.9527 log10 | 0.4176 log10
O=P(OC(CCl)CCl)(OC(CCl)CCl)OC(CCl)CCl | 0.3708 log10 | 0.4116 log10 | 0.2335 log10 | 0.5355 log10 | 0.1218 log10 | 0.2465 log10 | 0.2541 log10 | 0.3474 log10 | 0.1893 log10 | 0.1777 log10
O=C1C=CC(=O)N1c1ccc(Cc2ccc(N3C(=O)C=CC3=O)cc2)cc1 | -0.1715 log10 | -0.4086 log10 | -0.4673 log10 | -0.523 log10 | 0.07258 log10 | -0.4156 log10 | -0.5042 log10 | -0.6476 log10 | -0.3131 log10 | 0.01296 log10
Nc1ccc(/N=N/c2ccccc2)cc1 | 1.65 log10 | 1.2 log10 | 1.001 log10 | 1.333 log10 | 1.434 log10 | 1.192 log10 | 1.439 log10 | 1.239 log10 | 1.015 log10 | 0.9966 log10
